Measurements taken from ChEMBL document CHEMBL1130183, “Synthesis of a novel sialic acid derivative (sialylphospholipid) as an antirotaviral agent” (J Med Chem, 1997).

How the values were obtained:
Type in all cases: functional, organism-based
[1] = tested on: Simian rotavirus; assay: Inhibitory concentration against Simian rotavirus SA-11 strain; conditions: Rotavirus A
[2] = tested on: Rotavirus; assay: Inhibitory concentration against human rotavirus MO strain; No inhibition
[3] = tested on: Simian rotavirus; assay: Inhibitory concentration against Simian rotavirus SA-11 strain; No inhibition
[4] = tested on: Rotavirus; assay: Inhibitory concentration against human rotavirus MO strain

IC50 [1] [µM] | IC50 [4] [µM] | SMILES | IC50 [2] | IC50 [3]
4280 | – | CC(=O)NC1C(O)CC(O)(C(=O)O)OC1C(O)C(O)CO (stereo not given) | – | –
– | – | CCCCCCCCCCCCCCCCCC(=O)OCC(COP(=O)([O-])OCC[N+](C)(C)C)OC(=O)CCCCCCCCCCCCCCCCC (stereo not given) | Not Active | Not Active
4.35 | 16.1 | CCCCCCCCCCCCCCCCCC(=O)OCC(COP(=O)(O)OCCCCCCCCOC1(C(=O)O)CC(O)C(NC(C)=O)C([C@H](O)[C@H](O)CO)O1)OC(=O)CCCCCCCCCCCCCCCCC (stereo not given in full) | – | –
